Data from patent US20230323432A1, “ASSAY FOR DETECTING POINT MUTATIONS” (Bakotic Pathology Associates, LLC, priority 2022, published 2023).

Columns and labels:
T rubrum (ATCC-22402) = test: Terbinafine susceptibility testing of isolates by culture on terbinafine-containing agar (CLSI M38-A3); details: wild type strain ATCC-22402
Experimental: (§1) The isolates are re-tested for terbinafine drug resistance by plating the isolates on the sabouraud dextrose agar (SDA)/Potato dextrose agar (PDA) plates containing different concentration of terbinafine. Reagent-grade terbinafine (TRB) were obtained in the powder form (Sigma-Aldrich, Missouri, USA). Drug stock solutions were prepared in dimethyl sulfoxide (DMSO). The dermatophyte isolates were cultured on SDA/PDA for 21-30 days. In vitro testing of the susceptibility to Terbinafine allylamine was performed according to the Clinical and Laboratory Standards Institute (CLSI) document M38-A3 (CLSI, 2018). The drugs were analyzed at the final concentration in the range of 0.002-32 μg/ml for TRB.
(§2) Wild type strains for T rubrum (ATCC-22402) and T mentagrophytes (ATCC-28146) are obtained from ATCC.

[1] = tested on: T mentagrophytes (ATCC-28146); test: as above; details: wild type strain ATCC-28146
Experimental: as §1, §2

For CN(C/C=C/C#CC(C)(C)C)Cc1cccc2ccccc12 [terbinafine], the “terbinafine susceptibility by culture” value (T rubrum (ATCC-22402)) was “susceptible” and the “terbinafine susceptibility by culture” value [1] was “susceptible”.
